# Laboratory results published in the supplement of paper PMC10307832.
# Legend:
# Test in all cases: relative viability (nuclei count vs DMSO), 5 days (fraction); higher = more cells survive
# [1] = compound: C#Cc1cccc(Nc2ncnc3cc(OC)c(OCCCCCCC(=O)NO)cc23)c1 [CUDC-101] + CCNC(=O)c1noc(-c2cc(C(C)C)c(O)cc2O)c1-c1ccc(CN2CCOCC2)cc1 [Luminespib] (partner 0.01 µM)
# Procedure, shortened: (§1)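 The day after seeding in 1536-well plates, lung cancer cell lines were treated by pin tool with a single drug, or with a fixed anchor-drug dose together with five library-drug doses (not always all listed) in √10 steps. After 5 days, a combined fix-and-stain solution (final 0.05% Triton X-100, 1% formaldehyde, 1 ug/ml Hoechst) was added. Nuclei counted on 4× images gave relative viability as treated counts over vehicle counts, reported as the median of duplicate plates.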
# [2] = compound: C#Cc1cccc(Nc2ncnc3cc(OC)c(OCCCCCCC(=O)NO)cc23)c1 [CUDC-101] + C[C@]1(O)C[C@@H](c2nc(-c3ccc4ccc(-c5ccccc5)nc4c3)c3c(N)nccn32)C1 [Linsitinib] (partner 1 µM)
# Procedure, shortened: as §1
# [3] = compound: C#Cc1cccc(Nc2ncnc3cc(OC)c(OCCCCCCC(=O)NO)cc23)c1 [CUDC-101] + O=C(c1cc(Cc2n[nH]c(=O)c3ccccc23)ccc1F)N1CCN(C(=O)C2CC2)CC1 [Olaparib] (partner 8 µM)
# Procedure, shortened: as §1
# [4] = compound: COc1cc(N2CCC(N3CCN(C)CC3)CC2)ccc1Nc1ncc(Cl)c(Nc2ccccc2S(=O)(=O)C(C)C)n1 [NVP-TAE684] + CS(=O)(=O)N1CCN(Cc2cc3nc(-c4cccc5[nH]ncc45)nc(N4CCOCC4)c3s2)CC1 [Pictilisib] (partner 1 µM)
# Procedure, shortened: as §1
Cell Line,relative viability ([1]; first compound 0.01 µM),relative viability ([1]; first compound 0.03162 µM),relative viability ([1]; first compound 0.1 µM),relative viability ([1]; first compound 0.3162 µM),relative viability ([1]; first compound 1 µM),relative viability ([2]; first compound 0.01 µM),relative viability ([2]; first compound 0.03162 µM),relative viability ([2]; first compound 0.1 µM),relative viability ([2]; first compound 0.3162 µM),relative viability ([2]; first compound 1 µM),relative viability ([3]; first compound 0.01 µM),relative viability ([3]; first compound 0.03162 µM),relative viability ([3]; first compound 0.1 µM),relative viability ([3]; first compound 0.3162 µM),relative viability ([3]; first compound 1 µM),relative viability ([4]; first compound 0.2 µM),relative viability ([4]; first compound 0.6325 µM),relative viability ([4]; first compound 2 µM)
201T,1.03,0.988,0.981,1.08,1.02,1.05,0.93,0.978,1.05,0.781,0.867,0.817,0.806,0.8,0.793,0.699,0.676,0.652
A549,–,–,–,–,–,0.634,0.444,0.537,0.731,0.487,0.415,0.24,0.355,0.417,0.286,0.534,0.407,0.108
A-427,0.919,0.92,0.864,0.75,0.55,1.09,1.05,1.05,1.11,1.05,0.711,0.671,0.722,0.694,0.607,0.735,–,0.652
ABC-1,0.519,0.368,0.721,0.586,0.258,0.816,0.778,0.601,0.567,0.303,0.908,0.767,1.14,0.922,0.424,0.546,0.493,0.298
BEN,0.534,0.402,0.467,0.302,0.37,1.04,0.719,1.12,0.824,0.628,0.91,0.853,1.11,0.785,0.691,0.467,0.472,0.527
CAL-12T,0.525,0.337,0.337,0.556,0.36,0.914,0.7,0.777,0.924,0.656,0.734,0.681,0.752,0.772,0.668,0.36,0.245,0.305
COR-L23,0.801,0.734,0.658,0.632,0.353,1.25,0.898,0.956,0.736,0.252,0.402,0.374,0.331,0.266,0.294,0.51,0.442,0.173
COR-L 105,0.768,0.701,0.845,0.831,0.476,1.08,0.934,0.921,0.874,0.396,0.703,0.74,0.759,0.697,0.77,0.307,0.281,0.264
Calu-6,–,–,–,–,–,0.989,0.897,1.04,1.01,0.869,0.545,0.503,0.522,0.484,0.332,0.954,0.741,0.444
ChaGo-K-1,0.74,0.522,0.625,0.709,0.609,–,–,–,–,–,0.41,0.444,0.42,0.377,0.293,1.14,0.424,0.776
EBC-1,–,–,–,–,–,0.954,0.904,0.766,0.762,0.623,0.744,0.674,0.683,0.666,0.26,0.364,0.348,0.212
EKVX,0.916,0.677,0.749,0.982,0.81,1.17,0.84,0.938,1.07,0.709,1.06,0.737,0.71,0.961,0.624,0.437,0.354,0.319
EMC-BAC-2,1.29,1.08,1.2,1.22,0.973,0.845,0.867,0.852,0.765,0.634,0.493,0.485,0.485,0.532,0.376,0.527,0.513,0.456
EPLC-272H,0.141,0.554,0.598,0.269,0.257,1.25,1.1,1.16,1.05,1.08,0.885,0.703,0.596,0.448,0.365,0.285,–,0.184
H3255,0.845,0.648,–,0.541,0.439,1.02,0.751,0.38,0.5,0.203,0.653,0.547,0.512,0.442,0.264,0.454,0.424,0.256
HARA,0.465,0.682,0.616,0.311,0.185,1.01,0.804,0.908,0.512,0.349,1,0.844,–,0.418,0.154,0.459,0.238,0.275
HCC-15,0.169,0.279,0.299,0.559,0.596,0.786,0.853,0.857,0.954,0.743,0.684,0.726,0.652,0.665,0.499,0.718,0.738,0.737
HCC-44,0.947,0.909,1.03,1.03,1.06,0.549,0.617,0.678,0.675,0.555,0.964,1.01,0.893,0.972,1.07,0.658,0.602,0.412
HCC-78,–,–,–,–,–,0.438,0.387,0.707,0.42,0.27,1.01,0.688,0.821,0.584,0.341,0.207,0.138,0.172
HCC-366,–,–,–,–,–,0.658,0.344,0.741,0.607,0.528,0.363,0.353,0.325,0.345,0.245,0.0975,0.105,0.113
HCC-827,0.531,0.241,0.278,0.217,0.197,0.965,0.537,0.257,0.203,0.205,0.718,0.302,0.157,0.221,0.123,1.14,0.84,0.968

Cell Line,relative viability ([1]; first compound 0.01 µM),relative viability ([1]; first compound 0.03162 µM),relative viability ([1]; first compound 0.1 µM),relative viability ([1]; first compound 0.3162 µM),relative viability ([1]; first compound 1 µM),relative viability ([2]; first compound 0.01 µM),relative viability ([2]; first compound 0.03162 µM),relative viability ([2]; first compound 0.1 µM),relative viability ([2]; first compound 0.3162 µM),relative viability ([2]; first compound 1 µM),relative viability ([3]; first compound 0.01 µM),relative viability ([3]; first compound 0.03162 µM),relative viability ([3]; first compound 0.1 µM),relative viability ([3]; first compound 0.3162 µM),relative viability ([3]; first compound 1 µM),relative viability ([4]; first compound 0.2 µM),relative viability ([4]; first compound 0.6325 µM),relative viability ([4]; first compound 2 µM)
HOP-62,0.931,0.875,0.902,0.859,0.794,1.06,0.992,0.842,0.853,0.596,0.31,0.465,0.359,0.29,0.477,0.815,0.75,0.754
IA-LM,–,–,–,–,–,0.676,0.665,0.365,0.544,0.548,0.768,0.871,0.74,0.86,0.46,0.253,0.176,0.202
LC-2-ad,1.04,0.953,1.15,0.974,0.707,0.86,0.846,0.882,0.802,0.472,0.719,0.69,0.698,0.699,0.608,0.333,0.578,0.344
LCLC-97TM1,0.849,0.857,0.771,0.765,0.502,0.211,0.158,0.201,0.166,0.151,0.452,0.4,0.368,0.446,0.437,0.112,0.145,0.148
LCLC-103H,0.975,0.931,0.943,0.92,0.754,1.12,1.11,1.11,1.11,1.15,0.79,0.722,0.731,0.719,0.627,0.71,0.567,0.451
LK-2,0.248,0.196,0.19,0.179,0.178,0.464,0.561,0.614,0.472,0.25,0.821,0.754,0.597,0.495,0.281,0.649,0.472,0.343
LOU-NH91,0.395,0.216,0.334,0.385,0.316,0.978,0.634,0.564,0.599,0.453,0.906,0.779,0.76,0.754,0.624,0.635,0.462,0.481
LU99A,0.224,0.247,0.245,0.261,0.248,0.565,0.484,0.482,0.54,0.242,0.259,0.24,0.233,0.192,0.105,0.288,0.362,0.249
LXF-289,0.651,0.632,0.741,0.752,0.449,0.989,1.04,0.979,0.992,0.781,1.01,1.14,1.06,1.08,0.599,0.717,0.812,0.578
NCI-H23,0.197,0.204,0.209,0.207,0.197,0.667,0.51,0.606,0.661,0.435,0.271,0.373,0.323,0.302,0.248,0.518,0.422,0.377
NCI-H322M,0.84,0.697,0.899,1.01,0.697,0.882,0.76,0.741,0.803,0.737,0.789,0.674,0.771,0.692,0.594,0.43,0.463,0.388
NCI-H522,1.18,1.19,1.03,1.66,0.686,–,–,–,–,–,0.674,0.624,0.7,0.693,0.529,–,–,–
NCI-H1299,–,–,–,–,–,0.905,0.99,0.936,0.994,0.973,0.964,0.953,1,0.98,0.883,0.601,0.707,0.364
NCI-H1563,0.447,0.526,0.506,0.531,0.495,1.22,1.06,1.4,1.18,1.11,–,–,–,–,–,0.597,0.63,0.495
NCI-H1623,0.469,0.46,0.445,0.632,0.392,–,–,–,–,–,–,–,–,–,–,–,–,–
NCI-H1648,–,–,–,–,–,–,–,–,–,–,1.19,0.762,0.665,0.748,0.294,–,–,–
NCI-H1650,0.25,0.221,0.189,0.166,0.193,–,–,–,–,–,0.926,0.667,0.744,0.867,0.578,0.564,0.405,0.161
NCI-H1703,–,–,–,–,–,–,0.559,0.636,1.15,0.745,–,0.389,0.489,0.662,0.428,0.225,0.243,0.172
NCI-H2170,0.626,0.286,0.719,0.471,0.465,–,–,–,–,–,0.643,0.625,0.576,0.583,0.386,0.272,0.248,0.275
NCI-H2342,0.764,0.644,0.829,0.737,0.692,–,–,–,–,–,0.425,0.487,0.44,0.513,0.432,–,–,–
SW 900,0.168,0.181,0.185,0.157,0.174,–,–,–,–,–,0.887,0.811,0.841,0.686,0.628,–,–,–
